Data published in paper PMC8936499, “Cytochrome P450 168A1 from Pseudomonas aeruginosa is involved in the hydroxylation of biologically relevant fatty acids” (PLoS ONE, 2022).
Like-named read-outs stand apart in the source and are kept apart here. Marks after values point to notes of the source that are not given here.

Columns and labels:
CYP168A1 [1] = target: T1, CYP168A1 (Pseudomonas aeruginosa, UniProt Q9I107); type: biochemical; conditions: 0.5% DMF in the CYP168A1 assay system
Protocol: Assay mixtures were incubated at 37°C for 5 min prior to initiation with 4 mM β-NADPH-Na4 and then incubated for a further 2.5 hours at the same temperature. Fatty acids and their hydroxylated products were recovered by extraction with dichloromethane and dried in a vacuum centrifuge. TMS derivatisation of the samples and analysis by GCMS were performed as previously described. Percentage product formation was calculated from the GC peak areas of the fatty acid and the hydroxylated metabolites, with compound identities confirmed by mass fragmentation patterns of fatty acid standards.
Control assays contained no azole, but an equivalent volume of DMF. Experiments were undertaken in duplicate.

CYP168A1 [2] = target: T1, CYP168A1; assay: Fatty acid binding studies (spectral titration, type I difference spectra); conditions: for Low- to high-spin state change (%): from ΔAmax; for Kd: read-out: Ks, mean of four replicates ± SD
Protocol: The absorbance difference spectra from 500 nm to 350 nm were determined after each incremental addition of fatty acid. Ligand saturation curves were constructed from the change in absorbance (ΔApeak-trough) against fatty acid concentration. The dissociation constant for the fatty acid-CYP168A1 complex (Ks) was determined by nonlinear regression (Levenberg-Marquardt algorithm) using a rearrangement of the Morrison equation [14] and the Michaelis-Menten equation. […]. All fatty acid binding experiments were undertaken in quadruplicate.
In between ligand binding determinations, the quartz cuvettes were washed with deionized water and then soaked for 30 min in 2-propanol at room temperature to desorb any residual fatty acids from the cuvette surfaces, followed by rinsing a further three-times with 2-propanol and then deionized water prior to drying.

CYP168A1 [3] = conditions: cited from earlier work
CYP168A1 [4] = target: T1, CYP168A1; conditions: for Turnover no., ω-1- carbon hydroxylated / Turnover no., ω-2- carbon hydroxylated / % Product, ω-1- carbon hydroxylated / % Product, ω-2- carbon hydroxylated: 100 μM substrate, mean of two replicates ± standard error; for Turnover no., ω-1- carbon hydroxylated / Turnover no., ω-2- carbon hydroxylated: 0.25 μM CYP168A1, 37°C; for % Product, ω-1- carbon hydroxylated / % Product, ω-2- carbon hydroxylated: 0.25 μM CYP168A1, 2.5 h at 37°C; for hydroxylation rate at both the ω-1- and ω-2-positions (total): sum of ω-1 and ω-2 turnover
Candida albicans CYP51 = test system: Candida albicans CYP51; parameters: method as in PMID 23274672, PMID 20625155; conditions: cited from earlier work
CYP168A1 [5] = target: T1, CYP168A1; assay: Azole binding studies (spectral titration, type II difference spectra); conditions: read-out: apparent dissociation constant (Kd) of azole-CYP168A1 complex; 2 μM CYP168A1, rearranged Morrison equation, duplicate
CYP168A1 [6] = conditions: cited from earlier work; remark: listed apart in the source
[7] = test system: Streptomyces peucetius CYP147F1; parameters: method as in PMID 24055535; conditions: cited from earlier work
CYP168A1 [8] = conditions: comparison with ref 40
CYP168A1 [9] = target: T1, CYP168A1; conditions: 50 μM substrate, 2 μM CYP168A1, 3 hours at 37°C
CYP168A1 [10] = test system: CYP168A1; parameters: method as in PMID 35085556; conditions: arachidonic acid as substrate, CYP168A1:ketoconazole ratio 5μM:10μM; cited from earlier work
[11] = 5 μM CYP168A1, cuvette path length 10 mm
[12] = 5 μM CYP168A1, path length 10 mm
[13] = 5 μM CYP168A1, 0.1 M Tris-HCl pH 8.1, room temperature, rearranged Morrison equation

T1 sequence (Q9I107 entry or part of it): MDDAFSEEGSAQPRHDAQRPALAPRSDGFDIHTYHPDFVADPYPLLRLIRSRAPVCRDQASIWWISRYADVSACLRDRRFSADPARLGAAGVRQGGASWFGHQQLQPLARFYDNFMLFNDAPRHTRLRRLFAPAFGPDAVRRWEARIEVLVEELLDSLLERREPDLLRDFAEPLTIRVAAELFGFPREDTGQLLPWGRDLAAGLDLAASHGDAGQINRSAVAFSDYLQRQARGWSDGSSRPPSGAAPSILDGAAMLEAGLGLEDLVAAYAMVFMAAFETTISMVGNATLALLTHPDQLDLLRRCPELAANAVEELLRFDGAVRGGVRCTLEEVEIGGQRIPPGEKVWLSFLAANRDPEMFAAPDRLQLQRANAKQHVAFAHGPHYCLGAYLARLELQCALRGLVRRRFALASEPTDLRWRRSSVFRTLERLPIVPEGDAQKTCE

SMILES: CN(C)C=O [DMF, dimethylformamide]
- reduction in oleic acid turnover (CYP168A1 [1]): 10 fold

SMILES: CCCCCCCCCCCCCCCCCC(=O)O [Stearic acid, stearic acid]
- ΔAmax (CYP168A1 [2]; [11]): 0.328 ±0.020
- Ks in this study, fold lower than recently reported (CYP168A1 [2]; compared with ref 28): over 6 fold
- Low- to high-spin state change (%) (CYP168A1 [2]; [12]): 65.6 ±4.1%
- Low- to high-spin state change (%) (CYP168A1 [2]; 5 μM CYP168A1, path length 10 mm, listed as stearic acid): 66%
- Kd (CYP168A1 [2]; [13]): < 50 nM
- Kd (CYP168A1 [3]; read-out: Ks reported for P. aeruginosa CYP168A1): 327 nM
- catalytic turnover, fold greater than that for linoleic acid (CYP168A1 [4]): 3.5 fold
- fold less ω-1-hydroxy product formed than with palmitic acid as substrate (CYP168A1 [4]): 1.2 fold
- fold less ω-2-hydroxy product formed than with palmitic acid as substrate (CYP168A1 [4]): 2 fold
- Turnover no., ω-1- carbon hydroxylated (CYP168A1 [4]): 1.07 ± 0.09 min⁻¹
- Turnover no., ω-2- carbon hydroxylated (CYP168A1 [4]): 0.17 ± 0.01 min⁻¹
- % Product, ω-1- carbon hydroxylated (CYP168A1 [4]): 41 ± 2.9%
- % Product, ω-2- carbon hydroxylated (CYP168A1 [4]): 6.6 ± 0.5%
- hydroxylation rate at both the ω-1- and ω-2-positions (total) (CYP168A1 [4]): 1.24 min⁻¹

SMILES: CCCCCC/C=C\CCCCCCCC(=O)O [Palmitoleic acid, palmitoleic acid]
- fold-difference in apparent Ks values compared to stearic and linoleic acids (CYP168A1 [2]): ~3 fold
- ΔAmax (CYP168A1 [2]; [11]): 0.185 ±0.006
- Low- to high-spin state change (%) (CYP168A1 [2]; [12]): 37.0 ±1.2%
- Low- to high-spin state change (%) (CYP168A1 [2]; 5 μM CYP168A1, path length 10 mm, listed as palmitoleic acid): 37%
- Kd (CYP168A1 [2]; [13]): 155 ± 83 nM
- Kd (CYP168A1 [2]; 5 μM CYP168A1, 0.1 M Tris-HCl pH 8.1, room temperature, rearranged Morrison equation, listed as palmitoleic acid): ~150 nM
- Turnover no., ω-1- carbon hydroxylated (CYP168A1 [4]): 0.38 ± 0.06 min⁻¹
- Turnover no., ω-1- carbon hydroxylated (CYP168A1 [4]; listed as palmitoleic acid): 0.38 min⁻¹
- % Product, ω-1- carbon hydroxylated (CYP168A1 [4]): 15 ± 2.4%

SMILES: C[C@@H](c1ncncc1F)[C@](O)(Cn1cncn1)c1ccc(F)cc1F [voriconazole]
- Kd (Candida albicans CYP51): 10 nM
- Kd (CYP168A1 [5]): 2050 ± 540 nM

SMILES: CCCCCCCCCCCC(=O)O [lauric acid]
- CYP168A1 Km, fold higher than the Ks value (CYP168A1 [6]): 25 fold
- CYP168A1 turnover number (CYP168A1 [6]): 0.138 min⁻¹
- enzyme molecules undergoing low- to high-spin state transition [7]: 95%

SMILES: CCCCC/C=C\C/C=C\CCCCCCCC(=O)O [Linoleic acid, linoleic acid]
- ΔAmax (CYP168A1 [2]; [11]): 0.142 ±0.013
- Low- to high-spin state change (%) (CYP168A1 [2]; [12]): 28.3 ±2.6%
- Low- to high-spin state change (%) (CYP168A1 [2]; 5 μM CYP168A1, path length 10 mm, listed as linoleic acid): 28%
- Kd (CYP168A1 [2]; [13]): < 50 nM
- Turnover no., ω-1- carbon hydroxylated (CYP168A1 [4]): 0.35 ± 0.03 min⁻¹
- Turnover no., ω-1- carbon hydroxylated (CYP168A1 [4]; listed as linoleic acid): 0.35 min⁻¹
- % Product, ω-1- carbon hydroxylated (CYP168A1 [4]): 14 ± 1.3%

SMILES: CC(C)(C)C(O)(CCc1ccc(Cl)cc1)Cn1cncn1 (stereo not drawn) [tebuconazole]
- Kd (Candida albicans CYP51): 36 nM
- Kd (CYP168A1 [5]): 180 ± 10 nM

SMILES: CCCCCCCCCCCCCCCC(=O)O [Palmitic acid, palmitic acid]
- fold-difference in apparent Ks values compared to stearic and linoleic acids (CYP168A1 [2]): ~2 fold
- ΔAmax (CYP168A1 [2]; [11]): 0.290 ±0.015
- Low- to high-spin state change (%) (CYP168A1 [2]; [12]): 58.1 ±3.0%
- Low- to high-spin state change (%) (CYP168A1 [2]; 5 μM CYP168A1, path length 10 mm, listed as palmitic acid): 58%
- Kd (CYP168A1 [2]; [13]): 117 ± 56 nM
- Kd (CYP168A1 [2]; 5 μM CYP168A1, 0.1 M Tris-HCl pH 8.1, room temperature, rearranged Morrison equation, listed as palmitic acid): 120 nM
- turnover, fold greater than observed with Mycobacterium tuberculosis CYP124 (CYP168A1 [8]): 23 fold
- Turnover no., ω-1- carbon hydroxylated (CYP168A1 [4]): 1.27 ± 0.10 min⁻¹
- Turnover no., ω-2- carbon hydroxylated (CYP168A1 [4]): 0.34 ± 0.10 min⁻¹
- Turnover no., ω-1- carbon hydroxylated (CYP168A1 [4]; listed as palmitic acid): 1.27 min⁻¹
- Turnover no., ω-2- carbon hydroxylated (CYP168A1 [4]; listed as palmitic acid): 0.34 min⁻¹
- % Product, ω-1- carbon hydroxylated (CYP168A1 [4]): 49 ± 3.8%
- % Product, ω-2- carbon hydroxylated (CYP168A1 [4]): 13 ± 4.0%
- hydroxylation rate at both the ω-1- and ω-2-positions (total) (CYP168A1 [4]): 1.61 min⁻¹

SMILES: CC(C)CCC[C@@H](C)[C@H]1CC[C@H]2[C@@H]3CCC4=CC(=O)CC[C@]4(C)[C@H]3CC[C@]12C [cholesta-4-ene-3-one]
- oxygenated products formed (CYP168A1 [9]): no oxygenated products

SMILES: CC(=O)N1CCN(c2ccc(OCC3COC(Cn4ccnc4)(c4ccc(Cl)cc4Cl)O3)cc2)CC1 (stereo not drawn) [ketoconazole]
- reduction in enzyme activity (CYP168A1 [10]): ~70%

SMILES: CCCCC/C=C\C/C=C\C/C=C\C/C=C\CCCC(=O)O [Arachidonic acid, arachidonic acid]
- CYP168A1 turnover number (CYP168A1 [6]): 0.222 min⁻¹
- Ks value, fold larger than stearic acid (CYP168A1 [2]): 9000 fold
- fold-difference in apparent Ks values compared to stearic and linoleic acids (CYP168A1 [2]): ~9160 fold
- ΔAmax (CYP168A1 [2]; 5 μM CYP168A1, cuvette path length 4.5 mm): 0.071 ±0.009 ^b
- Ks in this study, fold higher than recently reported (CYP168A1 [2]; compared with ref 28): over 400 fold
- Low- to high-spin state change (%) (CYP168A1 [2]; 5 μM CYP168A1, path length 4.5 mm): 31.6 ±4.0 ^b %
- Low- to high-spin state change (%) (CYP168A1 [2]; 5 μM CYP168A1, path length 4.5 mm, listed as arachidonic acid): 32%
- Kd (CYP168A1 [2]; 5 μM CYP168A1, Michaelis-Menten equation, saturation not achieved at 660 μM): 458000 ± 87000 nM
- Kd (CYP168A1 [2]; 5 μM CYP168A1, Michaelis-Menten equation, saturation not achieved at 660 μM, listed as arachidonic acid): ~460000 nM
- Kd (CYP168A1 [3]): 960 nM

SMILES: CC(C)CCC[C@@H](C)[C@H]1CC[C@H]2[C@@H]3CC=C4C[C@@H](O)CC[C@]4(C)[C@H]3CC[C@]12C [cholesterol]
- oxygenated products formed (CYP168A1 [9]): no oxygenated products

SMILES: Clc1ccc(COC(Cn2ccnc2)c2ccc(Cl)cc2Cl)c(Cl)c1 (stereo not drawn) [miconazole]
- Kd (Candida albicans CYP51): 26 nM
- Kd (CYP168A1 [5]): 190 ± 60 nM

SMILES: C[C@]12CC[C@H]3[C@@H](CCC4=CC(=O)CC[C@@]43C)[C@@H]1CC[C@@H]2O [testosterone]
- oxygenated products formed (CYP168A1 [9]): no oxygenated products

SMILES: CCCCCCCC/C=C\CCCCCCCC(=O)O [Oleic acid, oleic acid]
- ΔAmax (CYP168A1 [2]; [11]): 0.277 ±0.014
- Low- to high-spin state change (%) (CYP168A1 [2]; [12]): 55.4 ±2.8%
- Low- to high-spin state change (%) (CYP168A1 [2]; 5 μM CYP168A1, path length 10 mm, listed as oleic acid): 55%
- Kd (CYP168A1 [2]; [13]): 142 ± 12 nM
- Kd (CYP168A1 [2]; 5 μM CYP168A1, 0.1 M Tris-HCl pH 8.1, room temperature, rearranged Morrison equation, listed as oleic acid): ~150 nM
- % Product, ω-1- carbon hydroxylated (CYP168A1 [4]): 49 ± 1.2%

SMILES: CCCCCCCCCCCCCC(=O)O [Myristic acid, myristic acid]
- fold-difference in apparent Ks values compared to stearic and linoleic acids (CYP168A1 [2]): ~5 fold
- Low- to high-spin state change (%) (CYP168A1 [2]; [12]): 22.8 ±1.6%
- Low- to high-spin state change (%) (CYP168A1 [2]; 5 μM CYP168A1, path length 10 mm, listed as myristic acid): 23%
- Kd (CYP168A1 [2]; [13]): 249 ± 103 nM
- Kd (CYP168A1 [2]; 5 μM CYP168A1, 0.1 M Tris-HCl pH 8.1, room temperature, rearranged Morrison equation, listed as myristic acid): 250 nM
- catalytic turnover, fold lower than palmitic acid (CYP168A1 [4]): 5.3 fold
- fold less ω-1-hydroxy product formed than with palmitic acid as substrate (CYP168A1 [4]): 4.7 fold
- fold less ω-2-hydroxy product formed than with palmitic acid as substrate (CYP168A1 [4]): 10.3 fold
- Turnover no., ω-1- carbon hydroxylated (CYP168A1 [4]): 0.27 ± 0.02 min⁻¹
- Turnover no., ω-2- carbon hydroxylated (CYP168A1 [4]): 0.033 ± 0.001 min⁻¹
- % Product, ω-1- carbon hydroxylated (CYP168A1 [4]): 11 ± 0.6%
- % Product, ω-2- carbon hydroxylated (CYP168A1 [4]): 1.3 ± 0.03%
- hydroxylation rate at both the ω-1- and ω-2-positions (total) (CYP168A1 [4]): 0.30 min⁻¹
